Counter-ions that a name gives are not always drawn.
Assays:
LU1147 tumors = test: Antitumor activity in Huprime NSCLC PDX tumor model LU1147; type: in vivo, mice
Method: (§1) These studies were performed at Crown Bioscience (Beijing) Inc., Ground Floor, Light Muller Building, Changping Sector of Zhongguancun Scientific Park, No. 21 Huoju Road, Changping District, Beijing, P.R. China.

LU2505 tumors = test: Antitumor activity in Huprime NSCLC PDX tumor model LU2505; type: in vivo, mice
Method: as §1

[1] = Phase 1 dose-escalation study: safety, DLT; type: in vivo, human
Method: Compound I was administered via IV bolus injection.

ST040 Endometrial tumors = test: Antitumor activity in Endometrial ST040 model; type: in vivo, mice
Method: (§2) These materials were obtained from and studies were performed at South Texas Accelerated Research Therapeutics, 4383 Medical Drive, San Antonio, Tex. 78229

ST502 TNBC tumors = test: Antitumor activity in Triple Negative Breast Cancer (TNBC) ST502 model; type: in vivo, mice
Method: as §2

ST738 TNBC tumors = test: Antitumor activity in Triple Negative Breast Cancer (TNBC) ST738 model; type: in vivo, mice
Method: as §2

KB-PR10 tumors = test: Antitumor activity on paclitaxel resistant KB-PR10 tumors in nu/nu mice; type: in vivo; conditions: three times a week for two weeks
Method: Four to six week-old female nu/nu mice (Harlan Sprague Dawley, Inc., Indianapolis, Ind.) were maintained on a standard 12 h light-dark cycle and fed ad libitum with folate-deficient chow (Harlan diet #TD00434, Harlan Teklad, Madison, Wis.) for the duration of the experiment. FR-positive paclitaxel resistant KB-PR10 cells were grown continuously as a monolayer, using folate-free RPMI medium (FFRPMI) containing 5% heat-inactivated fetal calf serum (HIFCS) at 37° C. in a 5% CO2/95% air-humidified atmosphere with no antibiotics. KB-PR10 cells (1×10^6 per nu/nu mouse) in 100 μL were injected in the subcutis of the dorsal medial area. […] Mice were treated with 20 mg/kg Paclitaxel, 2 μmol/kg EC145 (See WO2004/069159 for a description of EC145) or 1 μmol/kg Compound I on a three times a week for 2 weeks schedule when the tumors were approximately 100-145 mm^3, 101-129 mm^3 and 100-140 mm^3 in volume, respectively. The mice in the control groups received no treatment. […] All in vivo studies were performed in accordance with the American Accreditation Association of Laboratory Animal Care guidelines.

ST024 Ovarian tumors = test: Antitumor activity in Ovarian ST024 model; type: in vivo, mice
Method: as §2

large KB tumors = test: Antitumor activity in large KB tumor model; type: in vivo, mice; conditions: EC1456 2 μmol/kg, three times a week for two weeks
Method: Female Balb/c nu/nu mice were fed ad libitum with folate-deficient chow (Harlan diet #TD01013) for the duration of the experiment. KB tumor cells were inoculated subcutaneously at the right flank of each mouse.
Growth of each s.c. tumor was followed by measuring the tumor two times per week. Tumors were measured in two perpendicular directions using Vernier calipers, and their volumes were calculated as 0.5×L×W^2, where L=measurement of longest axis in mm and W=measurement of axis perpendicular to L in mm.

[2] = DL1 and DL2 (0.5 and 1.0 mg/m^2, BIW), 6 patients
[3] = EC1456 2 μmol/kg, two times a week for two weeks
[4] = EC1456 4 μmol/kg, once a week for two weeks
[5] = EC1456 1.5 μmol/kg, two times a week for two weeks (BIW×2)
[6] = EC1456 3 μmol/kg, once a week for two weeks (SIW×2)
[7] = EC1456 2 μmol/kg, two times a week for two weeks (BIW×2)
[8] = EC1456 4 μmol/kg, once a week for two weeks (SIW×2)
[9] = Eribulin mesylate 1 mg/kg, once a week for two weeks (SIW×2)
[10] = Paclitaxel 15 mg/kg, once a week for two weeks (SIW×2)

## CC(=O)O[C@@]12CO[C@@H]1C[C@H](O)[C@@]1(C)C(=O)[C@H](O)C3=C(C)[C@@H](OC(=O)[C@H](O)[C@@H](NC(=O)OC(C)(C)C)c4ccccc4)C[C@@](O)([C@@H](OC(=O)c4ccccc4)[C@H]21)C3(C)C [Docetaxel]
LU1147 tumors; Docetaxel 15 mg/kg, one dose
  animals exhibiting stable disease: 2 animals
  anti-tumor activity: minimal anti-tumor activity
LU2505 tumors; Docetaxel 15 mg/kg, one dose
  CR's: 2
  PR's: 2
  anti-tumor activity: some anti-tumor activity
  cures: 2

## CCCC(=O)OCN(C(=O)[C@@H](NC(=O)[C@H]1CCCCN1C)C(C)CC)[C@H](C[C@@H](OC(C)=O)c1nc(C(=O)N[C@@H](Cc2ccc(O)cc2)C[C@H](C)C(=O)NNC(=O)OCCSSC[C@@H](NC(=O)[C@H](CCC(=O)NC[C@H](O)[C@@H](O)[C@H](O)[C@H](O)CO)NC(=O)[C@@H](CCC(=O)O)NC(=O)[C@H](CCC(=O)NC[C@H](O)[C@@H](O)[C@H](O)[C@H](O)CO)NC(=O)[C@@H](CCC(=O)O)NC(=O)[C@H](CCC(=O)NC[C@H](O)[C@@H](O)[C@H](O)[C@H](O)CO)NC(=O)CC[C@@H](NC(=O)c2ccc(NCc3cnc4nc(N)[nH]c(=O)c4n3)cc2)C(=O)O)C(=O)O)cs1)C(C)C (some centres unmarked) [EC1456]
[1]; DL1 (0.5 mg/m^2, BIW)
  Grade 4 or treatment-related Grade 3 TEAEs: No Grade 4 or treatment-related Grade 3 TEAEs were observed
  severity of TEAEs (tinnitus, constipation, asthenia, ataxia, dizziness, orthostatic hypotension): mild and self-limited
[1]; DL1 (0.5 mg/m^2, BIW), Grade 3 vomiting in cycle 6, attributed to a viral syndrome
  SAE: one
[1]; [2]
  deaths on treatment or within 30 days of study discontinuation, treatment related SAEs, DLTs: No deaths occurred on treatment or within 30 days of study discontinuation, treatment related serious adverse events (SAEs) or DLTs
  dose delays, omissions, or reductions due to toxicity: no dose delays, omissions, or reductions due to toxicity
[1]; DL2 (1.0 mg/m^2, BIW)
  SAEs: no SAEs
  severity of TEAEs (abdominal pain, diarrhea, vomiting, hypoglycemia, pain): mild and self-limited
  ≧Grade 3 TEAEs regardless of relatedness: no ≧Grade 3 TEAEs observed
[1]; either dose level (DL1, DL2)
  cumulative or late-emerging treatment-related AEs: no evidence of cumulative or late-emerging treatment-related AEs
LU1147 tumors; [3]
  animals exhibiting stable disease: 5 animals
LU1147 tumors; [4]
  animals exhibiting stable disease: 6 animals
ST040 Endometrial tumors; [5]
  animal exhibiting PR: 1 animal
  anti-tumor activity: slightly better anti-tumor activity
ST040 Endometrial tumors; [6]
  anti-tumor activity: slightly better anti-tumor activity
  partial response (PR): 1
ST502 TNBC tumors; [7]
  anti-tumor activity: no anti-tumor activity
ST502 TNBC tumors; [8]
  anti-tumor activity: no anti-tumor activity
ST738 TNBC tumors; [7]
  animals exhibiting PR's: 3 animals
  anti-tumor activity: some anti-tumor activity
  cure: 2
ST738 TNBC tumors; [8]
  animals exhibiting PR's: 5 animals
  anti-tumor activity: some anti-tumor activity
LU2505 tumors; [3]
  cures: 7 of 7
LU2505 tumors; [4]
  cures: 7 of 7
KB-PR10 tumors; 2 μmol/kg
  anti-tumor activity: no-anti-tumor activity
KB-PR10 tumors; EC1456 1 μmol/kg
  PRs: 60%
  antitumor activity: good antitumor activity
  cures: 40%
ST024 Ovarian tumors; [7]
  animals exhibiting cures: 100%
  anti-tumor activity: curative
ST024 Ovarian tumors; [8]
  animals exhibiting cures: 100%
  anti-tumor activity: curative
  cure: 5
  partial response (PR): 2
Large KB tumors
  anti-tumor activity: excellent anti-tumor activity
Large KB tumors; 1000 mm^3 tumor group
  cures: 100%
Large KB tumors; 1400 mm^3 tumor group
  cures: 100%

## C=C1C[C@@H]2CC[C@@]34C[C@H]5O[C@H]6[C@@H](O3)[C@H]3O[C@H](CC[C@@H]3O[C@H]6[C@H]5O4)CC(=O)C[C@@H]3[C@@H](OC)[C@@H](C[C@H](O)CN)O[C@H]3C[C@H]3O[C@@H](CC[C@@H]1O2)C[C@@H](C)C3=C [Eribulin mesylate, reference compound]
ST502 TNBC tumors; [9]
  animal exhibiting PR: 1 animal
  anti-tumor activity: minimal anti-tumor activity
ST738 TNBC tumors; [9]
  PR's: 2
  anti-tumor activity: some anti-tumor activity

## CC(=O)O[C@H]1C(=O)[C@@]2(C)[C@H]([C@H](OC(=O)c3ccccc3)[C@]3(O)C[C@H](OC(=O)[C@H](O)[C@@H](NC(=O)c4ccccc4)c4ccccc4)C(C)=C1C3(C)C)[C@]1(OC(C)=O)CO[C@@H]1C[C@@H]2O [Paclitaxel, reference compound]
ST040 Endometrial tumors; [10]
  anti-tumor activity: minimal anti-tumor activity
KB-PR10 tumors; paclitaxel 20 mg/kg
  anti-tumor activity: little to no anti-tumor activity
ST024 Ovarian tumors; [10]
  anti-tumor activity: no anti-tumor activity

Source: patent US20170290878A1, “METHODS OF TREATING CANCER WITH TUBULYSIN CONJUGATES” (Endocyte, Inc., priority 2014, published 2017)
